# pIC50: −log10 of the molar value.
# Target: ALK tyrosine kinase receptor (Homo sapiens, UniProt Q9UM73, L1196M)
# Test: not given
# Settings: not given
# ALK tyrosine kinase receptor (Homo sapiens, UniProt Q9UM73, L1196M), sequence (Q9UM73 19-1620 L1196M limits assumed): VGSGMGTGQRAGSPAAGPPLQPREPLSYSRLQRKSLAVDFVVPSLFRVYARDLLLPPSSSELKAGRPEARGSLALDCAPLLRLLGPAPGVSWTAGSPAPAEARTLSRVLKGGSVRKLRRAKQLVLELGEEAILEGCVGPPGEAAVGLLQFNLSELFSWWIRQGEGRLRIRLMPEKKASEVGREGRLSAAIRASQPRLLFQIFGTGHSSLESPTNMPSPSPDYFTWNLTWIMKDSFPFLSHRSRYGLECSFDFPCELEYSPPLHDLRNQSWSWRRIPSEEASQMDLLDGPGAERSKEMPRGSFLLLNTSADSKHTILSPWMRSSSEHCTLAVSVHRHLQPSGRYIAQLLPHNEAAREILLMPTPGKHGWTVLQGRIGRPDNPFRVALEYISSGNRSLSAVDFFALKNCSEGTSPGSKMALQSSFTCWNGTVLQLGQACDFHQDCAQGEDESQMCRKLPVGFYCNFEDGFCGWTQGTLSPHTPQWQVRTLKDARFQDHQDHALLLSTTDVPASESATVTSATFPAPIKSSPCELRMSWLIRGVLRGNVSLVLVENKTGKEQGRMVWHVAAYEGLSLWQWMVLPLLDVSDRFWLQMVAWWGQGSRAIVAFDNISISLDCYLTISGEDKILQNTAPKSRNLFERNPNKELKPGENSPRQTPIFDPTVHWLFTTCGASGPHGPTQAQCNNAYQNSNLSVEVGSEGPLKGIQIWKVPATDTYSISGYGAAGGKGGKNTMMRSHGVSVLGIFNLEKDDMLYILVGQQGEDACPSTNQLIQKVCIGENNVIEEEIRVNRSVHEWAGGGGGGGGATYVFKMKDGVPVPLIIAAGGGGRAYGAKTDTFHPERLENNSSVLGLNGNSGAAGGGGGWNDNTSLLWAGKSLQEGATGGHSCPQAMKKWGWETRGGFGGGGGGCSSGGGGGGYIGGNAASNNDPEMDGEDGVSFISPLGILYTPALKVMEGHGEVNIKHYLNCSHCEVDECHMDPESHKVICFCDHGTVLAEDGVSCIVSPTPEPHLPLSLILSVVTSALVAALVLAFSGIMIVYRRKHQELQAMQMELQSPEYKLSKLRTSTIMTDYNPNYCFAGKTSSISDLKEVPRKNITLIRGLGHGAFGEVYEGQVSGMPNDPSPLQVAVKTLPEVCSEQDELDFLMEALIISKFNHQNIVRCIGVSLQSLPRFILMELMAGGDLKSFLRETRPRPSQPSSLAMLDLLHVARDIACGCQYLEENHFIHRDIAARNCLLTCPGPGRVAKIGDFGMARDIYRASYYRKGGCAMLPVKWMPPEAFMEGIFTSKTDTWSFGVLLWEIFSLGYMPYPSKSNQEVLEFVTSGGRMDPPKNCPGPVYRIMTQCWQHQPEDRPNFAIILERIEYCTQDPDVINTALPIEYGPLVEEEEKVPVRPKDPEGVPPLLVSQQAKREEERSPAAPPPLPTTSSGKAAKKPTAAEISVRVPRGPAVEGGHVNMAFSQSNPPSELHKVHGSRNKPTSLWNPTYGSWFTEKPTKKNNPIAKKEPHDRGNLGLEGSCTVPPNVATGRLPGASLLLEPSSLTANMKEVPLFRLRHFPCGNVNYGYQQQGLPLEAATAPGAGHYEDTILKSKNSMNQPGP
row,SMILES,pIC50
1,C/C(=N\Nc1ncc(Cl)c(Nc2ccccc2S(=O)(=O)C(C)C)n1)c1ccc(F)cc1,7.17
2,COc1ccc(/C=N/Nc2ncc(Cl)c(Nc3ccccc3S(=O)(=O)C(C)C)n2)cc1,7.09
3,COc1cccc(/C=N/Nc2ncc(Cl)c(Nc3ccccc3S(=O)(=O)C(C)C)n2)c1,7.07
4,CC(C)S(=O)(=O)c1ccccc1Nc1nc(N/N=C/c2ccc(C(F)(F)F)cc2)ncc1Cl,7.14
5,CC(C)S(=O)(=O)c1ccccc1Nc1nc(N/N=C/c2cccc(C(F)(F)F)c2)ncc1Cl,7.16
6,CC(C)S(=O)(=O)c1ccccc1Nc1nc(N/N=C/c2ccc(F)cc2)ncc1Cl,7.35
7,COc1ccc(/C(C)=N/Nc2ncc(Cl)c(Nc3ccccc3S(=O)(=O)C(C)C)n2)cc1,7.10
8,CC(C)S(=O)(=O)c1ccccc1Nc1nc(N/N=C/c2ccc(OC(F)(F)F)cc2)ncc1Cl,7.10

# Tested on: not listed separately
# Test: cells
# Settings: Homo sapiens, NCI-H460, 72 h
# Description: Cytotoxicity against human NCI-H460 cells assessed as reduction in cell proliferation after 72 hrs by MTT assay
row,SMILES,pIC50
1,C/C(=N\Nc1ncc(Cl)c(Nc2ccccc2S(=O)(=O)C(C)C)n1)c1ccc(F)cc1,< 5.00
2,COc1ccc(/C=N/Nc2ncc(Cl)c(Nc3ccccc3S(=O)(=O)C(C)C)n2)cc1,5.88
3,COc1cccc(/C=N/Nc2ncc(Cl)c(Nc3ccccc3S(=O)(=O)C(C)C)n2)c1,5.65
4,CC(C)S(=O)(=O)c1ccccc1Nc1nc(N/N=C/c2ccc(C(F)(F)F)cc2)ncc1Cl,< 5.00
5,CC(C)S(=O)(=O)c1ccccc1Nc1nc(N/N=C/c2cccc(C(F)(F)F)c2)ncc1Cl,< 5.00
6,CC(C)S(=O)(=O)c1ccccc1Nc1nc(N/N=C/c2ccc(F)cc2)ncc1Cl,5.89
7,COc1ccc(/C(C)=N/Nc2ncc(Cl)c(Nc3ccccc3S(=O)(=O)C(C)C)n2)cc1,5.60
8,CC(C)S(=O)(=O)c1ccccc1Nc1nc(N/N=C/c2ccc(OC(F)(F)F)cc2)ncc1Cl,5.92

# Target: Epidermal growth factor receptor (Homo sapiens, UniProt P00533)
# Sequence (P00533 whole entry): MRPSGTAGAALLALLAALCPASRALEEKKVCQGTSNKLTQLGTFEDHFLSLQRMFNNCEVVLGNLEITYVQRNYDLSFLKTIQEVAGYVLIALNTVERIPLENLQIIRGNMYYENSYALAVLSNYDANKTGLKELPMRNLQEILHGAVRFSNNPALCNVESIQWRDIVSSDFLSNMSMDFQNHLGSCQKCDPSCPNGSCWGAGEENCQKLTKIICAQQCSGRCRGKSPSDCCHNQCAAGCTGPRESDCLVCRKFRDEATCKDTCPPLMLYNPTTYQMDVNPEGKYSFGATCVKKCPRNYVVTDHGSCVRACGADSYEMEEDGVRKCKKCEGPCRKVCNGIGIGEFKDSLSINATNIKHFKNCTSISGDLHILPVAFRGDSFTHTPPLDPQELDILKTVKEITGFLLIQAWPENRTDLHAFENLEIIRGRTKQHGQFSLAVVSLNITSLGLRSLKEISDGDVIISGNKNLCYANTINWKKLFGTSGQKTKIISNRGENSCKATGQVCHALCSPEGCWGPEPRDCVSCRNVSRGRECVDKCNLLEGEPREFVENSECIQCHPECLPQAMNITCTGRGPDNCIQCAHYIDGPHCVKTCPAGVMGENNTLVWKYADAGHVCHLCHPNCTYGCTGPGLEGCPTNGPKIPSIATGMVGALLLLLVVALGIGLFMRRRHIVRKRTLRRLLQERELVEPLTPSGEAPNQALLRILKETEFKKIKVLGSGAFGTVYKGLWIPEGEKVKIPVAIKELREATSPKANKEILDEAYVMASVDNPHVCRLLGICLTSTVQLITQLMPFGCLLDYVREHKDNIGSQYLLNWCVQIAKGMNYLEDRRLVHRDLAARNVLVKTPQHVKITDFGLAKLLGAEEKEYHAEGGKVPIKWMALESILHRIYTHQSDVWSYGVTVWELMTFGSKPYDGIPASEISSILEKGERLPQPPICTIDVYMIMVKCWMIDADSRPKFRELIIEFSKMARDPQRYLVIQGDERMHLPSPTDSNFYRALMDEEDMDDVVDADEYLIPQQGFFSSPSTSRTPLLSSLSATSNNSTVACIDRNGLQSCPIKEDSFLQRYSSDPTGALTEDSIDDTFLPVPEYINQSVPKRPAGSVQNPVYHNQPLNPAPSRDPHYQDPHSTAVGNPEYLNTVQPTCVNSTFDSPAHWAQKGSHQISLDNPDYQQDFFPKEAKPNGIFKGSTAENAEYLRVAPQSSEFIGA
# Test: not given
# Settings: not given
row,SMILES,pIC50
1,C/C(=N\Nc1ncc(Cl)c(Nc2ccccc2S(=O)(=O)C(C)C)n1)c1ccc(F)cc1,< 6.00
2,COc1ccc(/C=N/Nc2ncc(Cl)c(Nc3ccccc3S(=O)(=O)C(C)C)n2)cc1,6.23
3,COc1cccc(/C=N/Nc2ncc(Cl)c(Nc3ccccc3S(=O)(=O)C(C)C)n2)c1,6.22
4,CC(C)S(=O)(=O)c1ccccc1Nc1nc(N/N=C/c2ccc(C(F)(F)F)cc2)ncc1Cl,6.23
5,CC(C)S(=O)(=O)c1ccccc1Nc1nc(N/N=C/c2cccc(C(F)(F)F)c2)ncc1Cl,6.34
6,CC(C)S(=O)(=O)c1ccccc1Nc1nc(N/N=C/c2ccc(F)cc2)ncc1Cl,6.24
7,COc1ccc(/C(C)=N/Nc2ncc(Cl)c(Nc3ccccc3S(=O)(=O)C(C)C)n2)cc1,< 6.00
8,CC(C)S(=O)(=O)c1ccccc1Nc1nc(N/N=C/c2ccc(OC(F)(F)F)cc2)ncc1Cl,6.05

# Target: T1, ALK tyrosine kinase receptor (Homo sapiens, UniProt Q9UM73)
# Test: Potency index, ratio of crizotinib IC50 to compound IC50 for ALK (unknown origin)
# Settings: not given
row,SMILES,Ratio IC50
1,C/C(=N\Nc1ncc(Cl)c(Nc2ccccc2S(=O)(=O)C(C)C)n1)c1ccc(F)cc1,9
2,CC(C)S(=O)(=O)c1ccccc1Nc1nc(N/N=C/c2ccc(F)cc2)ncc1Cl,9

# Tested on: ALK tyrosine kinase receptor (Homo sapiens), Q9UM73 [L1196M]
# Test: Potency index, ratio of crizotinib IC50 to compound IC50 for ALK L1196M mutant (unknown origin)
# Settings: not given
row,SMILES,Ratio IC50
1,C/C(=N\Nc1ncc(Cl)c(Nc2ccccc2S(=O)(=O)C(C)C)n1)c1ccc(F)cc1,20
2,COc1ccc(/C=N/Nc2ncc(Cl)c(Nc3ccccc3S(=O)(=O)C(C)C)n2)cc1,20
3,COc1cccc(/C=N/Nc2ncc(Cl)c(Nc3ccccc3S(=O)(=O)C(C)C)n2)c1,20
4,CC(C)S(=O)(=O)c1ccccc1Nc1nc(N/N=C/c2ccc(C(F)(F)F)cc2)ncc1Cl,20
5,CC(C)S(=O)(=O)c1ccccc1Nc1nc(N/N=C/c2cccc(C(F)(F)F)c2)ncc1Cl,20
6,CC(C)S(=O)(=O)c1ccccc1Nc1nc(N/N=C/c2ccc(F)cc2)ncc1Cl,20
7,COc1ccc(/C(C)=N/Nc2ncc(Cl)c(Nc3ccccc3S(=O)(=O)C(C)C)n2)cc1,20
8,CC(C)S(=O)(=O)c1ccccc1Nc1nc(N/N=C/c2ccc(OC(F)(F)F)cc2)ncc1Cl,20

# Tested on: KARPAS-299
# Test: Potency index, ratio of crizotinib IC50 to compound IC50 against human KARPAS299 cells harboring NPM-ALK
# Format: functional
# Settings: not given
row,SMILES,Ratio IC50
1,C/C(=N\Nc1ncc(Cl)c(Nc2ccccc2S(=O)(=O)C(C)C)n1)c1ccc(F)cc1,2.4

# Target: Proto-oncogene tyrosine-protein kinase ROS (Homo sapiens, UniProt P08922)
# Sequence (P08922 whole entry): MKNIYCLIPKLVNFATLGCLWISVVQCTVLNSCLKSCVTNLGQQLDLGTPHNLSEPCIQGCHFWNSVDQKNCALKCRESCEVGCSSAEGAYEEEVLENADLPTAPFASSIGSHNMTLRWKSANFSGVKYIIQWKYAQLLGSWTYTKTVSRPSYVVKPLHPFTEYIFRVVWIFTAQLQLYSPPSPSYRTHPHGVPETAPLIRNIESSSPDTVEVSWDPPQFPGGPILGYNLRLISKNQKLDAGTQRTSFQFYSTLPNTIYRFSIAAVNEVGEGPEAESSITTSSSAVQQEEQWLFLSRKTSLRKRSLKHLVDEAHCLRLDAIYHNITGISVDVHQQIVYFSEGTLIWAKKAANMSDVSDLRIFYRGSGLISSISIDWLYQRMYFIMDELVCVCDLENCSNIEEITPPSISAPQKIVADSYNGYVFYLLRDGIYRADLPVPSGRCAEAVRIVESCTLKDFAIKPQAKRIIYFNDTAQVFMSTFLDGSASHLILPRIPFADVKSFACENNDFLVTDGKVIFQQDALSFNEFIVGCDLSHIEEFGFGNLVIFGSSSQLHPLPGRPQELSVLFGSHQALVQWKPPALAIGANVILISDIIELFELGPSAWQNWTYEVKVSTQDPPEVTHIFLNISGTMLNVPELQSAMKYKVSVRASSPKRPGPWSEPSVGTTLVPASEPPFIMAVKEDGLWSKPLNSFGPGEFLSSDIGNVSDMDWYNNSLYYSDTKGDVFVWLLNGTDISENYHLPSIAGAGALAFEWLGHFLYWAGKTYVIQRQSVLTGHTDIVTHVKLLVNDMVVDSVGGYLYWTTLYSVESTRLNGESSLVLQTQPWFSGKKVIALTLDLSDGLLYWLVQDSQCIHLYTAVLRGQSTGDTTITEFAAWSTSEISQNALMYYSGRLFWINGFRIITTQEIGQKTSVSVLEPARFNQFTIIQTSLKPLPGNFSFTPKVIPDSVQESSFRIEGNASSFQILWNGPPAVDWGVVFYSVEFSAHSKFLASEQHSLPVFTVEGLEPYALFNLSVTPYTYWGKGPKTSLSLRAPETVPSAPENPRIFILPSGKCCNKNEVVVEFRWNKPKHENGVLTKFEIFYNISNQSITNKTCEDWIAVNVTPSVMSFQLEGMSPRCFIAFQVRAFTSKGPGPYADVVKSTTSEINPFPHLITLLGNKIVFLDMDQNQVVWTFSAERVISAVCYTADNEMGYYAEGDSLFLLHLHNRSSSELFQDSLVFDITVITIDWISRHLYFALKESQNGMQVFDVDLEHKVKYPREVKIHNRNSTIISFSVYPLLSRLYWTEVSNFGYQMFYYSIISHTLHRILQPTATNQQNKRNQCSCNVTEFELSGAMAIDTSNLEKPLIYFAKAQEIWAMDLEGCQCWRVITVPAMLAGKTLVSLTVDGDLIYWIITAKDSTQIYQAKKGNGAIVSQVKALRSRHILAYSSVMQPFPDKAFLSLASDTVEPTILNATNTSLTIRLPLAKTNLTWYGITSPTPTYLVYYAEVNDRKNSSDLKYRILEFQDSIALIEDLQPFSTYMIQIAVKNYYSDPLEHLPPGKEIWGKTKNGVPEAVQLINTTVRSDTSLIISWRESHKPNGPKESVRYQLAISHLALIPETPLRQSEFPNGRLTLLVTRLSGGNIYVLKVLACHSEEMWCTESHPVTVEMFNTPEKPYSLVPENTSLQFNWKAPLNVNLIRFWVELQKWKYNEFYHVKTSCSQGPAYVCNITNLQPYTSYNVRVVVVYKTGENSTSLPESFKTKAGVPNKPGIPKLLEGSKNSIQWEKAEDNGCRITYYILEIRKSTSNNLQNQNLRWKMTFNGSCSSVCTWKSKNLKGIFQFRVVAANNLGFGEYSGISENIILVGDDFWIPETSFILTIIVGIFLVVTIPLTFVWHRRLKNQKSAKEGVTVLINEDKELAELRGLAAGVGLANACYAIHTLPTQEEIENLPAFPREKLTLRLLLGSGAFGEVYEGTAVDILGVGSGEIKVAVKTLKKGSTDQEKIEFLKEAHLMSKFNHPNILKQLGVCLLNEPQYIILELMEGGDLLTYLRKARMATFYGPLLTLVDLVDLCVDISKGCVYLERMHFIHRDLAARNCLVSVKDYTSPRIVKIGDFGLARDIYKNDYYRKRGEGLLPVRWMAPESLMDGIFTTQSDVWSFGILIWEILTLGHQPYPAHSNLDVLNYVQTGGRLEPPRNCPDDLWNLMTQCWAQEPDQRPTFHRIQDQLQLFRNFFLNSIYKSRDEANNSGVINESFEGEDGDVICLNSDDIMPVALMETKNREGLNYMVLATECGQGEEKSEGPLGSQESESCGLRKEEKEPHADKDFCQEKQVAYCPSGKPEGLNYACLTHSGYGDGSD
# Test: not given
# Settings: not given
row,SMILES,pIC50
1,C/C(=N\Nc1ncc(Cl)c(Nc2ccccc2S(=O)(=O)C(C)C)n1)c1ccc(F)cc1,8.57
2,COc1ccc(/C=N/Nc2ncc(Cl)c(Nc3ccccc3S(=O)(=O)C(C)C)n2)cc1,8.64
3,COc1cccc(/C=N/Nc2ncc(Cl)c(Nc3ccccc3S(=O)(=O)C(C)C)n2)c1,8.24
4,CC(C)S(=O)(=O)c1ccccc1Nc1nc(N/N=C/c2ccc(C(F)(F)F)cc2)ncc1Cl,8.47
5,CC(C)S(=O)(=O)c1ccccc1Nc1nc(N/N=C/c2cccc(C(F)(F)F)c2)ncc1Cl,8.30
6,CC(C)S(=O)(=O)c1ccccc1Nc1nc(N/N=C/c2ccc(F)cc2)ncc1Cl,8.74
7,COc1ccc(/C(C)=N/Nc2ncc(Cl)c(Nc3ccccc3S(=O)(=O)C(C)C)n2)cc1,8.33
8,CC(C)S(=O)(=O)c1ccccc1Nc1nc(N/N=C/c2ccc(OC(F)(F)F)cc2)ncc1Cl,8.26

# Tested on: not listed separately
# Test: cells
# Settings: Homo sapiens, HCC78, 72 h
# Description: Cytotoxicity against human HCC78 cells harboring SLC34A2-ROS1 assessed as reduction in cell proliferation after 72 hrs by MTT assay
row,SMILES,pIC50
1,C/C(=N\Nc1ncc(Cl)c(Nc2ccccc2S(=O)(=O)C(C)C)n1)c1ccc(F)cc1,7.55
2,COc1ccc(/C=N/Nc2ncc(Cl)c(Nc3ccccc3S(=O)(=O)C(C)C)n2)cc1,7.70
3,COc1cccc(/C=N/Nc2ncc(Cl)c(Nc3ccccc3S(=O)(=O)C(C)C)n2)c1,7.36
4,CC(C)S(=O)(=O)c1ccccc1Nc1nc(N/N=C/c2ccc(C(F)(F)F)cc2)ncc1Cl,7.09
5,CC(C)S(=O)(=O)c1ccccc1Nc1nc(N/N=C/c2cccc(C(F)(F)F)c2)ncc1Cl,7.10
6,CC(C)S(=O)(=O)c1ccccc1Nc1nc(N/N=C/c2ccc(F)cc2)ncc1Cl,7.72
7,COc1ccc(/C(C)=N/Nc2ncc(Cl)c(Nc3ccccc3S(=O)(=O)C(C)C)n2)cc1,7.51
8,CC(C)S(=O)(=O)c1ccccc1Nc1nc(N/N=C/c2ccc(OC(F)(F)F)cc2)ncc1Cl,7.51

# Tested on: not listed separately
# Test: cells
# Settings: Homo sapiens, HT-29, 72 h
# Description: Cytotoxicity against human HT-29 cells assessed as reduction in cell proliferation after 72 hrs by MTT assay
row,SMILES,pIC50
1,C/C(=N\Nc1ncc(Cl)c(Nc2ccccc2S(=O)(=O)C(C)C)n1)c1ccc(F)cc1,< 5.00
2,COc1ccc(/C=N/Nc2ncc(Cl)c(Nc3ccccc3S(=O)(=O)C(C)C)n2)cc1,5.95
3,COc1cccc(/C=N/Nc2ncc(Cl)c(Nc3ccccc3S(=O)(=O)C(C)C)n2)c1,5.25
4,CC(C)S(=O)(=O)c1ccccc1Nc1nc(N/N=C/c2ccc(C(F)(F)F)cc2)ncc1Cl,5.95
5,CC(C)S(=O)(=O)c1ccccc1Nc1nc(N/N=C/c2cccc(C(F)(F)F)c2)ncc1Cl,5.26
6,CC(C)S(=O)(=O)c1ccccc1Nc1nc(N/N=C/c2ccc(F)cc2)ncc1Cl,5.75
7,COc1ccc(/C(C)=N/Nc2ncc(Cl)c(Nc3ccccc3S(=O)(=O)C(C)C)n2)cc1,< 5.00
8,CC(C)S(=O)(=O)c1ccccc1Nc1nc(N/N=C/c2ccc(OC(F)(F)F)cc2)ncc1Cl,5.71

# Target: T1, ALK tyrosine kinase receptor
# Test: not given
# Settings: not given
row,SMILES,pIC50
1,C/C(=N\Nc1ncc(Cl)c(Nc2ccccc2S(=O)(=O)C(C)C)n1)c1ccc(F)cc1,8.60
2,COc1ccc(/C=N/Nc2ncc(Cl)c(Nc3ccccc3S(=O)(=O)C(C)C)n2)cc1,8.32
3,COc1cccc(/C=N/Nc2ncc(Cl)c(Nc3ccccc3S(=O)(=O)C(C)C)n2)c1,8.21
4,CC(C)S(=O)(=O)c1ccccc1Nc1nc(N/N=C/c2ccc(C(F)(F)F)cc2)ncc1Cl,8.44
5,CC(C)S(=O)(=O)c1ccccc1Nc1nc(N/N=C/c2cccc(C(F)(F)F)c2)ncc1Cl,8.26
6,CC(C)S(=O)(=O)c1ccccc1Nc1nc(N/N=C/c2ccc(F)cc2)ncc1Cl,8.64
7,COc1ccc(/C(C)=N/Nc2ncc(Cl)c(Nc3ccccc3S(=O)(=O)C(C)C)n2)cc1,8.31
8,CC(C)S(=O)(=O)c1ccccc1Nc1nc(N/N=C/c2ccc(OC(F)(F)F)cc2)ncc1Cl,8.26

# Target: Hepatocyte growth factor receptor (Homo sapiens, UniProt P08581)
# Test: not given
# Settings: not given
row,SMILES,pIC50
1,C/C(=N\Nc1ncc(Cl)c(Nc2ccccc2S(=O)(=O)C(C)C)n1)c1ccc(F)cc1,< 6.00
2,COc1ccc(/C=N/Nc2ncc(Cl)c(Nc3ccccc3S(=O)(=O)C(C)C)n2)cc1,6.80
3,COc1cccc(/C=N/Nc2ncc(Cl)c(Nc3ccccc3S(=O)(=O)C(C)C)n2)c1,6.42
4,CC(C)S(=O)(=O)c1ccccc1Nc1nc(N/N=C/c2ccc(C(F)(F)F)cc2)ncc1Cl,6.42
5,CC(C)S(=O)(=O)c1ccccc1Nc1nc(N/N=C/c2cccc(C(F)(F)F)c2)ncc1Cl,6.32
6,CC(C)S(=O)(=O)c1ccccc1Nc1nc(N/N=C/c2ccc(F)cc2)ncc1Cl,6.66
7,COc1ccc(/C(C)=N/Nc2ncc(Cl)c(Nc3ccccc3S(=O)(=O)C(C)C)n2)cc1,< 6.00
8,CC(C)S(=O)(=O)c1ccccc1Nc1nc(N/N=C/c2ccc(OC(F)(F)F)cc2)ncc1Cl,6.41

# Tested on: not listed separately
# Test: cells
# Settings: Homo sapiens, KARPAS-299, 72 h
# Description: Cytotoxicity against human KARPAS299 cells harboring NPM-ALK assessed as reduction in cell proliferation after 72 hrs by MTT assay
row,SMILES,pIC50
1,C/C(=N\Nc1ncc(Cl)c(Nc2ccccc2S(=O)(=O)C(C)C)n1)c1ccc(F)cc1,7.70
2,COc1ccc(/C=N/Nc2ncc(Cl)c(Nc3ccccc3S(=O)(=O)C(C)C)n2)cc1,7.55
3,COc1cccc(/C=N/Nc2ncc(Cl)c(Nc3ccccc3S(=O)(=O)C(C)C)n2)c1,7.66
4,CC(C)S(=O)(=O)c1ccccc1Nc1nc(N/N=C/c2ccc(C(F)(F)F)cc2)ncc1Cl,7.46
5,CC(C)S(=O)(=O)c1ccccc1Nc1nc(N/N=C/c2cccc(C(F)(F)F)c2)ncc1Cl,7.19
6,CC(C)S(=O)(=O)c1ccccc1Nc1nc(N/N=C/c2ccc(F)cc2)ncc1Cl,7.80
7,COc1ccc(/C(C)=N/Nc2ncc(Cl)c(Nc3ccccc3S(=O)(=O)C(C)C)n2)cc1,7.47
8,CC(C)S(=O)(=O)c1ccccc1Nc1nc(N/N=C/c2ccc(OC(F)(F)F)cc2)ncc1Cl,7.52

# Tested on: not listed separately
# Test: cells
# Settings: Homo sapiens, A549, 72 h
# Description: Cytotoxicity against human A549 cells assessed as reduction in cell proliferation after 72 hrs by MTT assay
row,SMILES,pIC50
1,C/C(=N\Nc1ncc(Cl)c(Nc2ccccc2S(=O)(=O)C(C)C)n1)c1ccc(F)cc1,< 5.00
2,COc1ccc(/C=N/Nc2ncc(Cl)c(Nc3ccccc3S(=O)(=O)C(C)C)n2)cc1,6.24
3,COc1cccc(/C=N/Nc2ncc(Cl)c(Nc3ccccc3S(=O)(=O)C(C)C)n2)c1,5.90
4,CC(C)S(=O)(=O)c1ccccc1Nc1nc(N/N=C/c2ccc(C(F)(F)F)cc2)ncc1Cl,6.03
5,CC(C)S(=O)(=O)c1ccccc1Nc1nc(N/N=C/c2cccc(C(F)(F)F)c2)ncc1Cl,5.48
6,CC(C)S(=O)(=O)c1ccccc1Nc1nc(N/N=C/c2ccc(F)cc2)ncc1Cl,5.85
7,COc1ccc(/C(C)=N/Nc2ncc(Cl)c(Nc3ccccc3S(=O)(=O)C(C)C)n2)cc1,5.67
8,CC(C)S(=O)(=O)c1ccccc1Nc1nc(N/N=C/c2ccc(OC(F)(F)F)cc2)ncc1Cl,6.01

# Tested on: HCC78
# Test: Potency index, ratio of crizotinib IC50 to compound IC50 against human HCC78 cells harboring SLC34A2-ROS1
# Format: functional
# Settings: not given
row,SMILES,Ratio IC50
1,C/C(=N\Nc1ncc(Cl)c(Nc2ccccc2S(=O)(=O)C(C)C)n1)c1ccc(F)cc1,11.1

# From ChEMBL document CHEMBL3870304 (Eur J Med Chem, 2016)
